# In patent US20210300936A1, “PYRAZOLOTRIAZOLOPYRIMIDINE DERIVATIVES AS A2A RECEPTOR ANTAGONIST” (BEIGENE, LTD., priority 2018, published 2021):
# Read-outs that look alike come from different tables or passages of the source.
# Assays:
# [1] = molecular target: T1, human adenosine receptor A1 (A1R) (Homo sapiens, UniProt P30542); experiment: Adenosine receptor binding assay, radioligand competitive binding, [3H]DPCPX; details: membrane homogenates from CHO cells transfected with A1R, 1 nM [3H]DPCPX
# T1 construct: host or cells: CHO cells (membrane homogenates)
# T1 sequence (P30542 1-326): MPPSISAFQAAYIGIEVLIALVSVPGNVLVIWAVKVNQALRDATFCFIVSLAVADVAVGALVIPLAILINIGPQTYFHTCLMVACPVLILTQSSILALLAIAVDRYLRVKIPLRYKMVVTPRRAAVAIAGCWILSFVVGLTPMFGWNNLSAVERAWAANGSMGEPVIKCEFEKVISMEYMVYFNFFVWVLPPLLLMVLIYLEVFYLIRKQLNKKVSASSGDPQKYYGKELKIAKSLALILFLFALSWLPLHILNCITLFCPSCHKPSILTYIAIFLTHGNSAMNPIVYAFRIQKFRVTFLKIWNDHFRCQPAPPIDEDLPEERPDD
# Protocol: (§1) Binding affinity of test compounds to four human adenosine receptors, A1, A2A, A2B and A3 was determined in radioligand competitive binding assay (conducted by Cerep, France) using following protocols. For A1 receptor (A1R), membrane homogenates from CHO cells transfected with A1R were incubated for 60 min at 22° C. with 1 nM [3H]DPCPX in the absence or presence of the test compound in a buffer containing 50 mM Tris-HCl (pH 7.4), 5 mM MgCl2, 1 mM EDTA/Tris and 2 UI/mL ADA. For A2AR, membrane homogenates from HEK293 cells transfected with A2AR were incubated for 120 min at 22° C. with 6 nM [3H]CGS21680 in the absence or presence of the test compound in a buffer containing 50 mM Tris-HCl (pH 7.4), 10 mM MgCl2, and 2 UI/mL ADA. For A2B receptor (A2BR), membrane homogenates from HEK293 cells transfected with A2BR were incubated for 60 min at 22° C. with 5 nM [3H]CPX in the absence or presence of the test compound in a buffer containing 10 mM Hepes/Tris (pH 7), 1 mM MgCl2, and 1 mM EDTA. For A3 receptor (A3R), membrane homogenates from HEK293 cells transfected with A3R were incubated for 120 min at 22° C. with 0.15 nM [125I]AB-MECA in the absence or presence of the test compound in a buffer containing 50 mM Tris-HCl (pH 7.4), 5 mM MgCl2, 1 mM EDTA and 2 UI/mL ADA. Nonspecific binding was determined in the presence of unlabeled 1 μM DPCPX, 10 μM NECA, 100 μM NECA, and 1 μM IB-MECA in A1R, A2AR, A2BR, A3R binding assays, respectively. Following incubation, the samples are rapidly filtered and washed with ice-cold 50 mM Tris-HCl. Then filters are dried and counted for radioactivity in a scintillation counter (Topcount, Packard) using a scintillation cocktail (Microscint 0, Packard). Duplicate experiments were performed for each assay. The results are expressed as a percent inhibition of control radioligand specific binding.
# [2] = molecular target: human A2A receptor (A2AR) (Homo sapiens, UniProt P29274); experiment: Luciferase reporter assay (HEK293-A2AR-luc2p/CRE/Hygro cells, 3 nM CGS21680); assay type: cell-based; details: 3 nM CGS21680, 5 h incubation
# Chain of human A2A receptor (A2AR) (P29274 whole entry): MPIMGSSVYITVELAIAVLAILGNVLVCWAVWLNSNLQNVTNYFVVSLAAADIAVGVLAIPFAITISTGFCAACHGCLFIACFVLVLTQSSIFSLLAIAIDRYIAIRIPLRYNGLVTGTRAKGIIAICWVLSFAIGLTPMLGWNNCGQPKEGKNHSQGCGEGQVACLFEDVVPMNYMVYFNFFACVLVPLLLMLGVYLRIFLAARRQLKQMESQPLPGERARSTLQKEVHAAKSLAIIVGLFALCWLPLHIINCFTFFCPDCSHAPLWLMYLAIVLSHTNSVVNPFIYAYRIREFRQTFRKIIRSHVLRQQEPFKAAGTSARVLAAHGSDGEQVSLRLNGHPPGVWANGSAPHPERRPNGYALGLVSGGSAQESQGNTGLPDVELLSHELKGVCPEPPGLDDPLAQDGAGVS
# Outline: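 Antagonist (0.1–10000 nM) and 3 nM CGS21680 were co-added for 5 h to stable HEK293-A2AR-luc2p/CRE cells, 18 h after seeding in 1% FBS medium containing adenosine deaminase. Luminescence was normalized to agonist alone (100%), and IC50 came from the dose–inhibition curve.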
# Mouse BBB assay = assay type: in vivo; details: oral 10 mg/kg
# Protocol: Mice were acclimated for 1 week prior to use at 18-30 g body weight. Fasted mice were dosed orally at 10 mg/kg dose. At 1, 2 and 4 hours postdose, plasma samples from cardiac blood collected in tubes containing K2EDTA as the anticoagulant, and excised cerebral hemispheres were immediately frozen and stored at −80° C. until bioanalysis. Total concentrations of the compound were determined by LC-MS/MS. Brain homogenate concentrations were converted to brain concentrations for the calculations of brain-to-plasma ratios.
# [3] = molecular target: T2, human adenosine receptor A2A (A2AR) (Homo sapiens, UniProt P29274); experiment: Adenosine receptor binding assay, radioligand competitive binding, [3H]CGS21680; details: membrane homogenates from HEK293 cells transfected with A2AR, 6 nM [3H]CGS21680
# T2 construct: host or cells: HEK293 cells (membrane homogenates)
# T2 sequence (P29274 whole entry): as above
# Protocol: as §1
SMILES,Ki [1] [nM],IC50 [2] [nM],"concentration at 1 h (Mouse BBB assay; brain, read-out: Brain) [ng/g]","concentration at 1 h (Mouse BBB assay; plasma, read-out: Plasma) [ng/mL]",Ki [3] [nM]
"CCCC(C(=O)N1CCN(c2ccc(OCCOC)cc2)CC1)n1ncc2c1nc(N)n1nc(-c3ccco3)nc21 (single isomer, unassigned) [Compound A5a, 2-(5-amino-2-(furan-2-yl)-7H-pyrazolo[4,3-e][1,2,4]triazolo[1,5-c]pyrimidin-7-yl)-1-(4-(4-(2-methoxyethoxy)phenyl)piperazin-1-yl)pentan-1-one]",160,2.2,5.1,116,1.7
"CCCC(C(=O)N1CCN(c2ccc(OCCOC)cc2)CC1)n1ncc2c1nc(N)n1nc(-c3ccco3)nc21 (single isomer, unassigned) [Compound A5b, 2-(5-amino-2-(furan-2-yl)-7H-pyrazolo[4,3-e][1,2,4]triazolo[1,5-c]pyrimidin-7-yl)-1-(4-(4-(2-methoxyethoxy)phenyl)piperazin-1-yl)pentan-1-one]",310,50,–,–,6
"CCCC(C(=O)N1CCN(c2ccc(OCCOCCOC)cc2)CC1)n1ncc2c1nc(N)n1nc(-c3ccco3)nc21 (single isomer, unassigned) [Compound A6a, 2-(5-amino-2-(furan-2-yl)-7H-pyrazolo[4,3-e][1,2,4]triazolo[1,5-c]pyrimidin-7-yl)-1-(4-(4-(2-(2-methoxyethoxy)ethoxy)phenyl)piperazin-1-yl)pentan-1-one]",81,5,4.2,173,1.4
"CCCCC(C(=O)N1CCN(c2ccc(OCCOC)cc2)CC1)n1ncc2c1nc(N)n1nc(-c3ccco3)nc21 (single isomer, unassigned) [Compound A10a, 2-(5-amino-2-(furan-2-yl)-7H-pyrazolo[4,3-e][1,2,4]triazolo[1,5-c]pyrimidin-7-yl)-1-(4-(4-(2-methoxyethoxy)phenyl)piperazin-1-yl)hexan-1-one]",120,2.7,20,471,2.3
"CCCCC(C(=O)N1CCN(c2ccc(OCCOC)cc2)CC1)n1ncc2c1nc(N)n1nc(-c3ccco3)nc21 (single isomer, unassigned) [Compound A10b, 2-(5-amino-2-(furan-2-yl)-7H-pyrazolo[4,3-e][1,2,4]triazolo[1,5-c]pyrimidin-7-yl)-1-(4-(4-(2-methoxyethoxy)phenyl)piperazin-1-yl)hexan-1-one]",260,143,–,–,5.6
"COCCOc1ccc(N2CCN(C(=O)C(c3ccccc3)n3ncc4c3nc(N)n3nc(-c5ccco5)nc43)CC2)cc1 (single isomer, unassigned) [Compound A13a]",190,26.9,–,–,6.2
"COCCOc1ccc(N2CCN(C(=O)C(CC(C)C)n3ncc4c3nc(N)n3nc(-c5ccco5)nc43)CC2)cc1 (single isomer, unassigned) [Compound A16a]",57,0.3,–,–,1.5
"COCCOc1ccc(N2CCN(C(=O)C(CC(C)C)n3ncc4c3nc(N)n3nc(-c5ccco5)nc43)CC2)cc1 (single isomer, unassigned) [Compound A16b]",770,96.4,–,–,15
"CC(C)CC(C(=O)N1CCN(c2ccc(F)cc2F)CC1)n1ncc2c1nc(N)n1nc(-c3ccco3)nc21 (single isomer, unassigned) [Compound A22b]",18,0.6,–,–,1.7
"CCCC(C(=O)N1CCN(c2ccc(OCCOC)cc2F)CC1)n1ncc2c1nc(N)n1nc(-c3ccco3)nc21 (single isomer, unassigned) [Compound A24a]",120,1,–,–,1.4
"CCCC(C(=O)N1CCN(c2ccc(OCCOC)cc2F)CC1)n1ncc2c1nc(N)n1nc(-c3ccco3)nc21 (single isomer, unassigned) [Compound A24b]",1200,78.8,–,–,8.5
"CCCC(C(=O)N1CCN(c2ccc(OCCN(C)C)cc2)CC1)n1ncc2c1nc(N)n1nc(-c3ccco3)nc21 (single isomer, unassigned) [Compound A39b]",79,3.6,–,–,2
"COCCOc1ccc(N2CCN(C(=O)C(c3ccccc3F)n3ncc4c3nc(N)n3nc(-c5ccco5)nc43)CC2)cc1 (single isomer, unassigned) [Compound A43b]",54,0.4,–,–,1.2
"Nc1nc2c(cnn2C(C(=O)N2CCc3ccccc3C2)c2ccccc2)c2nc(-c3ccco3)nn12 (single isomer, unassigned) [Compound B3b]",150,0.5,–,–,0.89
"COCCOc1ccc(N2CCN(C(=O)C(C)n3cc4c(nc(N)n5nc(-c6ccco6)nc45)n3)CC2)cc1 (single isomer, unassigned) [Compound C1a]",< 0.5,57.1,–,–,6.2
"COCCOc1ccc(N2CCN(C(=O)C(C)n3cc4c(nc(N)n5nc(-c6ccco6)nc45)n3)CC2)cc1 (single isomer, unassigned) [Compound C1b]",10,12.7,–,–,2.5
"COCCOc1ccc(N2CCN(C(=O)[C@](C)(c3ccccc3)n3ncc4c3nc(N)n3nc(-c5ccco5)nc43)CC2)cc1 [Compound A63a, (S)-2-(5-amino-2-(furan-2-yl)-7H-pyrazolo[4,3-e][1,2,4]triazolo[1,5-c]pyrimidin-7-yl)-1-(4-(4-(2-methoxyethoxy)phenyl)piperazin-1-yl)-2-phenylpropan-1-one]",1130,8,–,–,3.1
"COCCOc1ccc(N2CCN(C(=O)[C@@](C)(c3ccccc3)n3ncc4c3nc(N)n3nc(-c5ccco5)nc43)CC2)cc1 [Compound A63b, (R)-2-(5-amino-2-(furan-2-yl)-7H-pyrazolo[4,3-e][1,2,4]triazolo[1,5-c]pyrimidin-7-yl)-1-(4-(4-(2-methoxyethoxy)phenyl)piperazin-1-yl)-2-phenylpropan-1-one]",153,3.3,–,–,1.5
"COCCOc1ccc(N2CCN(C(=O)Cn3ncc4c3nc(N)n3nc(-c5ccco5)nc43)CC2)cc1 [Compound D1, 2-(5-amino-2-(furan-2-yl)-7H-pyrazolo[4,3-e][1,2,4]triazolo[1,5-c]pyrimidin-7-yl)-1-(4-(4-(2-methoxyethoxy)phenyl)piperazin-1-yl)ethan-1-one]",52,27,–,–,1.8
"COCCOc1ccc(N2CCN(C(=O)Cn3cc4c(nc(N)n5nc(-c6ccco6)nc45)n3)CC2)cc1 [Compound D2, 2-(5-amino-2-(furan-2-yl)-8H-pyrazolo[4,3-e][1,2,4]triazolo[1,5-c]pyrimidin-8-yl)-1-(4-(4-(2-methoxyethoxy)phenyl)piperazin-1-yl)ethan-1-one]",0.81,66.8,–,–,2.8
"COCCOc1ccc(N2CCN(CCn3ncc4c3nc(N)n3nc(-c5ccco5)nc43)CC2)cc1 [Preladenant, preladenant, reference compound]",337,–,–,–,–
